Laboratory results from patent publication US20190076436A1, “MACROCYCLIC COMPOUNDS AS ROS1 KINASE INHIBITORS” (Array BioPharma Inc., priority 2017, published 2019).

Tests used:
Assay type in all cases: biochemical
[1] = target: wild type ROS1 (Homo sapiens, UniProt P08922); test: Inhibition of wild type ROS1 kinase, CisBio HTRF KinEASE-TK assay; conditions: read-out: ROS1 wT IC50
Procedure: (§1) The potency of a compound inhibiting wild type and exemplary mutant ROS1 kinases was determined using CisBio's HTRF Kinease-TK assay technology. […] No. […] No. […] Each kinase is incubated with 250 nM TK-substrate biotin (CisBio, Cat. No. 62TKOPEC) and 1 mM ATP along with test compound in a buffer consisting of 25 mM MOPS [pH 7.4], 5 mM MgCl2, 0.005% Triton X-100, and 2% DMSO in a volume of 8 μL. […] After a 1 hour incubation at 22° C., the extent of reaction was determined using a PerkinElmer EnVision multimode plate reader via HTRF dual wavelength detection, and the percent of control (POC) was calculated using a ratiometric emission factor. 100 POC is determined using no test compound and 0 POC is determined in the absence of enzyme.

[2] = target: G2032R ROS1 (Homo sapiens, UniProt P08922, G2032R); test: Inhibition of G2032R ROS1 kinase, CisBio HTRF KinEASE-TK assay
Chain of G2032R ROS1 (P08922 1883-2347 G2032R limits assumed): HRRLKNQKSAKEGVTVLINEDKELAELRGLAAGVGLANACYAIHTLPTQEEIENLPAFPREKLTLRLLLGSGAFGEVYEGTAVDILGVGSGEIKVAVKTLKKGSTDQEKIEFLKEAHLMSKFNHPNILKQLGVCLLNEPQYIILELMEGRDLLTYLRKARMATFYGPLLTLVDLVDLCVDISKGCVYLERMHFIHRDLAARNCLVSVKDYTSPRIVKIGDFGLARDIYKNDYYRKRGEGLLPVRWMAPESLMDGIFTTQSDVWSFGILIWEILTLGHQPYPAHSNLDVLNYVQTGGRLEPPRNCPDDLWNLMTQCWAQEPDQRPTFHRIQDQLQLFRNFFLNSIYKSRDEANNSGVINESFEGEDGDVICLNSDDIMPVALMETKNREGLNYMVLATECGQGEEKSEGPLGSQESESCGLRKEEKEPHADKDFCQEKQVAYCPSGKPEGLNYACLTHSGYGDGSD
Procedure: as §1

[3] = target: L2026M ROS1 (Homo sapiens, UniProt P08922, L2026M); test: Inhibition of L2026M ROS1 kinase, CisBio HTRF KinEASE-TK assay
Chain of L2026M ROS1 (P08922 28-2347 L2026M): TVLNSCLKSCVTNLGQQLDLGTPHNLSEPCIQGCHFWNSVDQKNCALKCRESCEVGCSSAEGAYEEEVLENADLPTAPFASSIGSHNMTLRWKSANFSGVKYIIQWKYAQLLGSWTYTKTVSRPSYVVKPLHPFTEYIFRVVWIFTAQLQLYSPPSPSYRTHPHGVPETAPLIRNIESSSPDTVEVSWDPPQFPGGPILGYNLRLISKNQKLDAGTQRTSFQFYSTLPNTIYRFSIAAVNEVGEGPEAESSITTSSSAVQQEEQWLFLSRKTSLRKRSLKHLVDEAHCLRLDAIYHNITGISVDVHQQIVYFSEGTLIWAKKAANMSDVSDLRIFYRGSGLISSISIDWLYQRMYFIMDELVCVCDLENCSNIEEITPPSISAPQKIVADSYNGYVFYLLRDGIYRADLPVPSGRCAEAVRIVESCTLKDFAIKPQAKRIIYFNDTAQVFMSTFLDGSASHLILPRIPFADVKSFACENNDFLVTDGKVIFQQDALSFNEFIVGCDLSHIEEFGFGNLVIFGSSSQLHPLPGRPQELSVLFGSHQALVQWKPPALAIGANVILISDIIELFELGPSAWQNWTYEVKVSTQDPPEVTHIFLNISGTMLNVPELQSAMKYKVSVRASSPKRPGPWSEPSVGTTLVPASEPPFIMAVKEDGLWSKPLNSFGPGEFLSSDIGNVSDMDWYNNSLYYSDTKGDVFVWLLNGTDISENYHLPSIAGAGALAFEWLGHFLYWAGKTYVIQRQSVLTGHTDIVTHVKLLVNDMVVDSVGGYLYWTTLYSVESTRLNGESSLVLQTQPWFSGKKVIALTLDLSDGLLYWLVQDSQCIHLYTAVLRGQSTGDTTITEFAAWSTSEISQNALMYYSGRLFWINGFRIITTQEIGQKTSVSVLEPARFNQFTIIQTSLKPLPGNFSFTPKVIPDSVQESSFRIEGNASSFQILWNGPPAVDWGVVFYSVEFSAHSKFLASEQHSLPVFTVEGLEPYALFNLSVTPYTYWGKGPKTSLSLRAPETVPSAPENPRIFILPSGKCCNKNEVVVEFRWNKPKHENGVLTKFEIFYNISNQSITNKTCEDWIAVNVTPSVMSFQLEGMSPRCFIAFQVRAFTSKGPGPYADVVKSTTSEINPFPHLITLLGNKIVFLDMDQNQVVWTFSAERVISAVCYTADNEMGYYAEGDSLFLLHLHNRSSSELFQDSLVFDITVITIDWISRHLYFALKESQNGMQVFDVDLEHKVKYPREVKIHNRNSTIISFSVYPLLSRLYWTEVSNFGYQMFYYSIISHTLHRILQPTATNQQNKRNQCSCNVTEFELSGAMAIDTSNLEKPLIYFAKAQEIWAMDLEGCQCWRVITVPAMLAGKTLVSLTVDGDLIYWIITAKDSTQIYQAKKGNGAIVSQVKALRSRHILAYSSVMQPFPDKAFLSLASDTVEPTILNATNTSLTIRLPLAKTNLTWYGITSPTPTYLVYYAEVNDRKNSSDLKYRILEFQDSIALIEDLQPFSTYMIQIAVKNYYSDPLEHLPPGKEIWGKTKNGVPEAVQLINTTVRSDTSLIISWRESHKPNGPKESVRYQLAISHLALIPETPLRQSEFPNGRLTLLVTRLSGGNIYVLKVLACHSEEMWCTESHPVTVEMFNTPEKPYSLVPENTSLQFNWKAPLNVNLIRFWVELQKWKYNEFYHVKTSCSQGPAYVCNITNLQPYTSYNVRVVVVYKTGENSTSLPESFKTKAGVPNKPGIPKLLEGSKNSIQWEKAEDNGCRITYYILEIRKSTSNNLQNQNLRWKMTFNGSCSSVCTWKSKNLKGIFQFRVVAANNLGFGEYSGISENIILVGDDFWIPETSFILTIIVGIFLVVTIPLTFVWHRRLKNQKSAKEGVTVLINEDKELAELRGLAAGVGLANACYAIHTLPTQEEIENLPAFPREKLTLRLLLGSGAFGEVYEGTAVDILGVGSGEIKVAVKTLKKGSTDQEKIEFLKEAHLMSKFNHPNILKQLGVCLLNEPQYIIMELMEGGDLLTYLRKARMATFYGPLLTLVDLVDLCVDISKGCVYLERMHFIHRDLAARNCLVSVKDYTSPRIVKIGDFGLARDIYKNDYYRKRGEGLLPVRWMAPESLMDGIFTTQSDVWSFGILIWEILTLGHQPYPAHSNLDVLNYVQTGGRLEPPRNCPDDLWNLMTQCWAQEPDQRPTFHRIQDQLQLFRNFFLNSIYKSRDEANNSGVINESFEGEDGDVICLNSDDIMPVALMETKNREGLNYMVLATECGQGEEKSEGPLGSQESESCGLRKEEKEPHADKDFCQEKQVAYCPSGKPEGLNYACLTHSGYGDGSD
Procedure: as §1

[4] = target: D2033N ROS1 (Homo sapiens, UniProt P08922, D2033N); test: Inhibition of D2033N ROS1 kinase, CisBio HTRF KinEASE-TK assay
Chain of D2033N ROS1 (P08922 28-2347 D2033N): as the sequence (P08922 28-2347 L2026M) above, with M1999L, D2006N counted along it
Procedure: as §1

Chain of wild type ROS1 (P08922 1883-2347 limits assumed): as the sequence (P08922 1883-2347 G2032R limits assumed) above, with R150G counted along it

## O=C1NC[C@H](O)COc2ccc(F)cc2C2CC(F)(F)CN2c2ccn3ncc1c3n2 (single isomer, unassigned) [Compound 45]
[1]
  IC50: 6.1 nM
[2]
  IC50: 114 nM
[3]
  IC50: 4.6 nM
[4]
  IC50: 16.8 nM

## O=C1NCCCOc2cccc(n2)[C@H]2CCCN2c2ccn3ncc1c3n2 [Compound 2, (6R)-12-oxa-2,16,20,21,24,26-hexaazapentacyclo[16.5.2.1^7,11.0^2,6.0^21,25] hexacosa-1(24),7(26),8,10,18(25),19,22-heptaen-17-one]
[1]
  IC50: 80.3 nM
[2]
  IC50: 1060 nM
[3]
  IC50: 67 nM
[4]
  IC50: 11.9 nM

## O=C1NCCCOc2ncc(F)cc2[C@H]2CCCN2c2ccn3ncc1c3n2 [Compound 3, (6R)-9-fluoro-13-oxa-2,11,17,21,22,25-hexaazapentacyclo[17.5.2.0^2,6.0^7,12.0^22,26] hexacosa-1(25),7,9,11,19(26),20,23-heptaen-18-one]
[1]
  IC50: 1.2 nM
[2]
  IC50: 9.4 nM
[3]
  IC50: 1.2 nM
[4]
  IC50: 0.3 nM

## O=C1NC[C@@H](O)COc2ncc(F)cc2[C@H]2CCCN2c2ccn3ncc1c3n2 [Compound 7, (6R,15R)-9-fluoro-15-hydroxy-13-oxa-2,11,17,21,22,25-hexaazapentacyclo-[17.5.2.0^2,6.0^7,12.0^22,26]hexacosa-1(25),7,9,11,19(26),20,23-heptaen-18-one]
[1]
  IC50: 3.1 nM
[2]
  IC50: 29.2 nM
[3]
  IC50: 2.9 nM
[4]
  IC50: 0.6 nM

## O=C1NCCOc2ncc(F)cc2[C@H]2CCCN2c2ccn3ncc1c3n2 [Compound 9, (6R)-9-fluoro-13-oxa-2,11,16,20,21,24-hexaazapentacyclo[16.5.2.0^2,6.0^7,12.0^21,25] pentacosa-1(24),7,9,11,18(25),19,22-heptaen-17-one]
[1]
  IC50: 9.2 nM
[2]
  IC50: 98.6 nM
[3]
  IC50: 10.2 nM
[4]
  IC50: 1.7 nM

## O=C1OCCOc2ncc(F)cc2[C@H]2CCCN2c2ccn3ncc1c3n2 [Compound 14]
[1]
  IC50: 28.9 nM
[2]
  IC50: 107 nM
[3]
  IC50: 30.3 nM
[4]
  IC50: 7.6 nM

## O=C1NCC(F)(F)COc2ncc(F)cc2[C@H]2CCCN2c2ccn3ncc1c3n2 [Compound 19, (6R)-9,15,15-trifluoro-13-oxa-2,11,17,21,22,25-hexaazapentacyclo[17.5.2.0^2,6.0^7,12.0^22,26] hexacosa-1(25),7,9,11,19(26),20,23-heptaen-18-one]
[1]
  IC50: 2.4 nM
[2]
  IC50: 14.4 nM
[3]
  IC50: 2.4 nM
[4]
  IC50: 1.2 nM

## O=C1NCCCOc2ccc(F)cc2[C@H]2CCCN2c2ccn3ncc1c3n2 [Compound 20, (6R)-9-fluoro-13-oxa-2,17,21,22,25-pentaazapentacyclo[17.5.2.0^2,6.0^7,12.0^22,26] hexacosa-1(25),7,9,11,19(26),20,23-heptaen-18-one]
[1]
  IC50: 2.5 nM
[2]
  IC50: 21.6 nM
[3]
  IC50: 2.2 nM
[4]
  IC50: 2.8 nM

## CC(=O)N1CCOc2ccc(F)cc2[C@H]2CCCN2c2ccn3ncc(c3n2)C1 [Compound 22, 1-[(6R)-9-fluoro-13-oxa-2,16,20,21,24-pentaazapentacyclo[16.5.2.0^2,6.0^7,12.0^21,25]pentacosa-1(24),7,9,11,18(25),19,22-heptaen-16-yl]ethan-1-one]
[1]
  IC50: 331 nM
[2]
  IC50: 3980 nM
[3]
  IC50: 713 nM
[4]
  IC50: 397 nM

## C[C@H]1CNC(=O)c2cnn3ccc(nc23)N2CCC[C@@H]2c2cc(F)cn(c2=O)C1 [Compound 35, (6R,13S)-9-fluoro-13-methyl-2,11,15,19,20,23-hexaazapentacyclo [15.5.2.1^7,11.0^2,6.0^20,24]pentacosa-1(23),7,9,17(24),18,21-hexaene-16,25-dione]
[1]
  IC50: 779 nM
[2]
  IC50: 4930 nM
[3]
  IC50: 589 nM
[4]
  IC50: 260 nM
